Drawing on patent publication US10023593B2, “ALK kinase inhibitor, and preparation method and uses thereof” (BEIJING PEARL BIOTECHNOLOGY LIMITED LIABILITY COMPANY, priority 2014, dated 2018), this text covers IC50 for 17 compounds.

SMILES strings stand for the structures.

For experiment [1], the system named is Karpas-299 cell line. The experiment can be described thus: CellTiter-Glo cell proliferation inhibition on Karpas-299 cell line. Particulars: Homo sapiens, 96 h, Karpas-299 cells, 5000 cells/well, 4 days drug treatment. The class given is cell-based. A digest of the protocol:
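CellTiter-Glo luminescence measured after 4-day compound exposure (0.5% DMSO final) of Karpas-299 cells seeded at 5000/well in RPMI-1640 with 10% FBS, 37 °C, 5% CO2. IC50 derived from percent inhibition relative to vehicle wells.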
On the technique in general: Cellular ATP, detected with luciferase, serves as a proxy for viable cell number.

The target of experiment [2] is T1, L1196M mutant ALK kinase (Homo sapiens, UniProt Q9UM73, L1196M).
T1 construct: purchased Sino-US Crown Bioscience, Inc. batch number ALKm_20110923
T1 sequence (Q9UM73 19-1620 L1196M): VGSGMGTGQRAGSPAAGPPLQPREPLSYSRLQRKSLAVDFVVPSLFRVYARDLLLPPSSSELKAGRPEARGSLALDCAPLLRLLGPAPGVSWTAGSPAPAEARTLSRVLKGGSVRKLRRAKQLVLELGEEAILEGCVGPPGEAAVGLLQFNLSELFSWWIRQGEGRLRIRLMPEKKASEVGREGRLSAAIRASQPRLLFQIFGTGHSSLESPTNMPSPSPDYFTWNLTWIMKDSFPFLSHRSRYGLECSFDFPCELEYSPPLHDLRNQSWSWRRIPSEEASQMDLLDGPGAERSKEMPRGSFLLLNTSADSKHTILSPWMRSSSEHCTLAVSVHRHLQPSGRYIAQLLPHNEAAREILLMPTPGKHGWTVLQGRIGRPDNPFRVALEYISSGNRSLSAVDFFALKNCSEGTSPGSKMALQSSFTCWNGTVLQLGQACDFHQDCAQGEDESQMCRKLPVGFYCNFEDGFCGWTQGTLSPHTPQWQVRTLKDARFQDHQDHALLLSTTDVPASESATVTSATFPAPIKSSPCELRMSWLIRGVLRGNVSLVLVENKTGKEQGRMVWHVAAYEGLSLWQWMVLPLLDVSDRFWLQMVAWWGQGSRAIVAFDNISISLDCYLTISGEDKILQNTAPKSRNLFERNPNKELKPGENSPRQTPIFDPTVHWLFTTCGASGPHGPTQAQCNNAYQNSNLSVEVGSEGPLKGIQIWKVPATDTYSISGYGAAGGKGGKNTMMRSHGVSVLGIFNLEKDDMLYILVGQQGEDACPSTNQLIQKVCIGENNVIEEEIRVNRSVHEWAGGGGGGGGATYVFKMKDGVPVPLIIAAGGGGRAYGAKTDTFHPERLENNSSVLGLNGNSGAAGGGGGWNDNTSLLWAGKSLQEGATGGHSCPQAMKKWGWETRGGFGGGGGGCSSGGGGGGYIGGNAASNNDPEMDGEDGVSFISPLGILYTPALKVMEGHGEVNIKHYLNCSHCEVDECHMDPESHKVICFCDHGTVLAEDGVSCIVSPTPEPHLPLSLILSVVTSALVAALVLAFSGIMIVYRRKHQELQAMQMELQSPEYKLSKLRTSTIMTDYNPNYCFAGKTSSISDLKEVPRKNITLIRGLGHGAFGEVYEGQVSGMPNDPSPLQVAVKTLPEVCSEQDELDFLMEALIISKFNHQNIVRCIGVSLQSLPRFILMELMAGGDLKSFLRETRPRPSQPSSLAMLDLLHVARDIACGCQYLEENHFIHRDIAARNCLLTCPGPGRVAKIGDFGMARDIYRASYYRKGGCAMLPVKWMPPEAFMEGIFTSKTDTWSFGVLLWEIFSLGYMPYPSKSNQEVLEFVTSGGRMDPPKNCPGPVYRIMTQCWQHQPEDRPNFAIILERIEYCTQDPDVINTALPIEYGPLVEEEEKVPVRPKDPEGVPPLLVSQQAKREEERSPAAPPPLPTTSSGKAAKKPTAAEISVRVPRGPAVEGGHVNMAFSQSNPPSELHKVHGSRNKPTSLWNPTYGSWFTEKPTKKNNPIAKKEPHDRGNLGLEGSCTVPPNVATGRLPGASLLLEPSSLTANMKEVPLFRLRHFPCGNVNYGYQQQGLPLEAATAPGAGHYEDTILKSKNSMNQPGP
The experiment is described as follows: HTRF KinEASE-TK assay, inhibitory activity on L1196M mutant ALK kinase. The class given is biochemical. Particulars: L1196M mutant ALK 1 ng/μl, substrate 1 μM, ATP 5 μM, 30° C. 35 minutes, read-out: Inhibition on ALK kinases (L1196M mutant), IC50. A digest of the protocol:
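HTRF TK assay: mutant kinase 1 ng/μl, substrate 1 μM, ATP 5 μM, 5 mM MgCl2, 1 mM DTT, 1% DMSO, 35 min at 30 °C. 665/615 ratio read; inhibition normalised to no-compound and 10.4 μM LDK-378 controls; IC50 from curve fit.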
(In TR-FRET formats the signal depends on donor and acceptor labels being close together.)

In the case of `CC(C)Oc1cc(C2CCNCC2)ccc1Nc1ncc(Cl)c(Nc2cn(C)nc2S(=O)(=O)C(C)C)n1` [Final product 1, 5-chloro-N^2-[2-isopropoxy-4-(piperidin-4-yl)phenyl]-N^4-(3-isopropylsulfonyl-1-methyl-1H-pyrazol-4-yl)pyrimidin-2,4-diamine], the IC50 in experiment [1] is 0.01 µM; in experiment [2], 0.008 µM.

Turning to `Cc1cc(Nc2ncc(Cl)c(Nc3cn(C)nc3S(=O)(=O)C(C)C)n2)c(OC(C)C)cc1C1CCNCC1` [Final product 2], the IC50 in experiment [1] and in experiment [2] was 0.016 µM throughout.

For the compound `Cc1cc(Nc2ncc(Cl)c(Nc3cn(C)nc3S(=O)(=O)C(C)C)n2)c(OC(C)C)cc1C1CCNC1` (stereo not shown) [Final product 3], the figures for the IC50 in experiment [1] and in experiment [2] were 0.028 µM and 0.005 µM, respectively.

Regarding `Cc1cc(Nc2ncc(Cl)c(Nc3cn(C)nc3S(=O)(=O)C(C)C)n2)c(OC2CC2)cc1C1CCN(C)C1` (stereo not shown) [Final product 53], the values for the 50% inhibitory concentration (IC50) in experiment [1] and in experiment [2] were 0.016 µM and 0.004 µM, respectively.

`Cc1cc(Nc2ncc(Cl)c(Nc3cn(C)nc3S(=O)(=O)C(C)C)n2)c(OC2CC2)cc1C1CN(C)C1` [Final product 54]: the IC50 in experiment [1] worked out at 0.007 µM; in experiment [2], 0.005 µM.

Regarding `Cc1cc(Nc2ncc(Cl)c(Nc3cn(C)nc3S(=O)(=O)CC(C)C)n2)c(OC2CC2)cc1C1CN(C)C1` [Final product 55], the IC50 in experiment [1] came to 0.025 µM; in experiment [2], 0.008 µM.

For `Cc1cc(Nc2ncc(Cl)c(Nc3cn(C4CC4)nc3S(=O)(=O)C(C)C)n2)c(OC2CC2)cc1C1CCN(C)CC1` [Final product 56], the IC50 in experiment [1] came to 0.021 µM; in experiment [2], 0.011 µM.

Turning to `Cc1cc(Nc2ncc(Cl)c(Nc3cn(C)nc3S(=O)(=O)CC(C)C)n2)c(OC2CC2)cc1C1CCN(C)CC1` [Final product 57], the IC50 in experiment [1] came out at 0.012 µM; in experiment [2], 0.011 µM.

For the compound `COC1CN(C)CCC1c1cc(OC2CC2)c(Nc2ncc(Cl)c(Nc3cn(C)nc3S(=O)(=O)C(C)C)n2)cc1C` (stereo not shown) [Final product 58], the IC50 in experiment [1] is 0.011 µM; in experiment [2], 0.006 µM.

As for `COCC1CC(c2cc(OC3CC3)c(Nc3ncc(Cl)c(Nc4cn(C)nc4S(=O)(=O)C(C)C)n3)cc2C)CCN1C` (stereo not shown) [Final product 77], the IC50 in experiment [1] and in experiment [2] was 0.004 µM throughout.

As to `COCC1CC(c2cc(OC3CC3)c(Nc3ncc(Cl)c(Nc4cn(C)nc4S(=O)(=O)CC(C)C)n3)cc2C)CCN1C` (stereo not shown) [Final product 79], the IC50 in experiment [1] came to 0.012 µM; in experiment [2], 0.008 µM.

Turning to `Cc1cc(Nc2ncc(Cl)c(Nc3cn(C4CC4)nc3S(=O)(=O)C(C)C)n2)c(OC(C)C)cc1C1CCN(C)CC1` [Final product 81], the IC50 in experiment [1] came out at 0.027 µM; in experiment [2] it was 0.025 µM.

Consider `COCCN1CCC(c2cc(OC3CC3)c(Nc3ncc(Cl)c(Nc4cn(C)nc4S(=O)(=O)C(C)C)n3)cc2C)CC1` [Final product 82], for which the values for the IC50 in experiment [1] and in experiment [2] were 0.014 µM and 0.007 µM, respectively.

Turning to `Cc1cc(Nc2ncc(Cl)c(Nc3cn(C)nc3S(=O)(=O)C(C)C)n2)c(OC2CC2)cc1C1CCN(C)CC1F` (stereo not shown) [Final product 87], the results for the half-inhibitory concentration (IC50) in experiment [1] and in experiment [2] were 0.013 µM and 0.01 µM, respectively.

Regarding `Cc1cc(Nc2ncc(Cl)c(Nc3cn(C)nc3S(=O)(=O)C(C)C)n2)c(OC2CC2)cc1C1CCN(C)CC1(F)F` (stereo not shown) [Final product 88], the IC50 in experiment [1] was 0.017 µM; in experiment [2] it was 0.015 µM.

As for `Cc1cc(Nc2ncc(Cl)c(Nc3cn(C)nc3S(=O)(=O)C(C)C)n2)c(OC2CC2)cc1C1CCN(C)CC1C` (stereo not shown) [Final product 90], the IC50 in experiment [1] was 0.005 µM; in experiment [2], 0.004 µM.

As to `Cc1cc(Nc2ncc(Cl)c(Nc3cn(C)nc3S(=O)(=O)C(C)C)n2)c(OC2CC2)cc1C1CCC(NS(C)(=O)=O)CC1` (stereo not shown) [Final product 205, N-(4-(4-(5-chloro-4-(3-(isopropylsulfonyl)-1-methyl-1H-pyrazol-4-amine)pyrimidin-2-amine)-5-cyclopropoxy-2-methylphenyl)cyclohexyl)methanesulfonamide], the half-inhibitory concentration (IC50) was determined as 0.018 µM in experiment [1] and 0.02 µM in experiment [2].

Broadly, the IC50 is the concentration at which inhibition is half-maximal.
